In PubChem BioAssay (NCI):
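In this assay, cells in 96-well plates receive the compound at five concentrations for 48 hours. Endpoints are linearly interpolated between the surrounding concentrations. Definition used: TGI = concentration required for complete inhibition of growth.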

Experiments:
Experiment in all cases: NCI-60 cell line screen, 48 h
[1] = tested on: OVCAR-8 ovarian
[2] = tested on: UO-31 renal
[3] = tested on: HS 578T breast
[4] = tested on: LOX IMVI melanoma
[5] = tested on: 786-0 renal
[6] = tested on: KM12 colon
[7] = tested on: SK-MEL-2 melanoma
[8] = tested on: OVCAR-5 ovarian
[9] = tested on: RXF 393 renal
[10] = tested on: NCI-H23 lung
[11] = tested on: SW-620 colon
[12] = tested on: SK-MEL-5 melanoma
[13] = tested on: A549 NSCLC
[14] = tested on: MDA-MB-435
[15] = tested on: U251 CNS
[16] = tested on: IGROV1 ovarian
[17] = tested on: DU-145 prostate
[18] = tested on: SNB-19 CNS
[19] = tested on: T-47D breast
[20] = tested on: HL-60(TB) leukemia
[21] = tested on: PC-3 prostate
[22] = tested on: ACHN renal
[23] = tested on: MOLT-4 leukemia
[24] = tested on: SN12C renal
[25] = tested on: HT29 colon
[26] = tested on: CCRF-CEM leukemia
[27] = tested on: CAKI-1 renal
[28] = tested on: HOP-92 NSCLC
[29] = tested on: BT-549 breast
[30] = tested on: MALME-3M melanoma
[31] = tested on: MDA-MB-231 breast
[32] = tested on: M14 melanoma
[33] = tested on: OVCAR-3 ovarian
[34] = tested on: HCT-116 colon
[35] = tested on: SNB-75 CNS
[36] = tested on: OVCAR-4 ovarian
[37] = tested on: COLO 205 colon
[38] = tested on: HCT-15 colon
[39] = tested on: SF-268 CNS
[40] = tested on: SR leukemia
[41] = tested on: NCI-H460 lung
[42] = tested on: SK-MEL-28 melanoma
[43] = tested on: A498 renal
[44] = tested on: TK-10 renal
[45] = tested on: K-562 leukemia
[46] = tested on: SF-539 CNS
[47] = tested on: SF-295 CNS
[48] = tested on: NCI-H226 lung
[49] = tested on: MCF7 breast
[50] = tested on: UACC-257 melanoma
[51] = tested on: MDA-N
[52] = tested on: NCI-H522 lung
[53] = tested on: NCI/ADR-RES ovarian
[54] = tested on: HOP-62 NSCLC
[55] = tested on: UACC-62 melanoma
[56] = tested on: SK-OV-3 ovarian

COc1cc(S(=O)(=O)Nc2nc(-c3ccc(N4C(=O)/C(=C\c5cccs5)N=C4c4ccccc4)cc3)cs2)ccc1Cl
TGI [1]: > 100 µM
TGI [2]: > 100 µM
TGI [3]: 63.9 µM
TGI [4]: > 100 µM
TGI [5]: > 100 µM
TGI [6]: > 100 µM
TGI [7]: 64.8 µM
TGI [8]: > 100 µM
TGI [9]: > 100 µM
TGI [10]: > 100 µM
TGI [11]: > 100 µM
TGI [12]: > 100 µM
TGI [13]: > 100 µM
TGI [14]: > 100 µM
TGI [15]: > 100 µM
TGI [16]: > 100 µM
TGI [17]: > 100 µM
TGI [18]: > 100 µM
TGI [19]: > 100 µM
TGI [20]: > 100 µM
TGI [21]: > 100 µM
TGI [22]: > 100 µM
TGI [23]: > 100 µM
TGI [24]: > 100 µM
TGI [25]: > 100 µM
TGI [26]: > 100 µM
TGI [27]: > 100 µM
TGI [28]: 89.8 µM
TGI [29]: 83.4 µM
TGI [30]: 55.5 µM
TGI [31]: 56.6 µM
TGI [32]: > 100 µM
TGI [33]: > 100 µM
TGI [34]: > 100 µM
TGI [35]: > 100 µM
TGI [36]: > 100 µM
TGI [37]: > 100 µM
TGI [38]: > 100 µM
TGI [39]: 59 µM
TGI [40]: > 100 µM
TGI [41]: > 100 µM
TGI [42]: > 100 µM
TGI [43]: > 100 µM
TGI [44]: > 100 µM
TGI [45]: > 100 µM
TGI [46]: > 100 µM
TGI [47]: > 100 µM
TGI [48]: > 100 µM
TGI [49]: > 100 µM
TGI [50]: > 100 µM
TGI [51]: > 100 µM
TGI [52]: 83.8 µM
TGI [53]: > 100 µM
TGI [54]: > 100 µM
TGI [55]: 65.5 µM
TGI [56]: > 100 µM
